# Values quoted from earlier work in patent publication US20080299102A1, “Novel BACE proteins, nucleic acid molecules therefor, novel crystal structure of novel BACE proteins, and methods for making and using” (priority 2001, published 2008).
# Where a SMILES comes first, the peptide text is derived from it. [ ]: non-standard residue; d: D form. The star is where a group is joined. Sta = CC(C)C[C@H](N)[C@@H](O)CC(=O)O; Isovaleryl = CC(C)CC(=O)*
# Target: BACE (Homo sapiens, UniProt P56817)
# Settings: general statement in the description, no test data given
# Chain of BACE (P56817 46-501): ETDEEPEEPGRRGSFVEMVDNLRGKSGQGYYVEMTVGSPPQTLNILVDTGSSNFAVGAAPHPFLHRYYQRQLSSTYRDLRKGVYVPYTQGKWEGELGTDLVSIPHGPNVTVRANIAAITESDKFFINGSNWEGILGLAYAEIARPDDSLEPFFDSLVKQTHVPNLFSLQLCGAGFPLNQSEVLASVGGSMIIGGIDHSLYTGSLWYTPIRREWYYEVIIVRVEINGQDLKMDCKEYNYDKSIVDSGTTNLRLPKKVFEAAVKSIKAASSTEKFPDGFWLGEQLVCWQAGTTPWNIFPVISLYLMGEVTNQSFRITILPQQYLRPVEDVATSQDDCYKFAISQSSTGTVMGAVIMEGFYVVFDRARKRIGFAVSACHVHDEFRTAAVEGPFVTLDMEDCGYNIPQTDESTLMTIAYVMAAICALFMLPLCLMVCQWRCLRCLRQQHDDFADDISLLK
structure (smiles),measurement,value
CC(C)CC(=O)N[C@H](C(=O)N[C@H](C(=O)N[C@@H](CC(C)C)[C@@H](O)CC(=O)N[C@@H](C)C(=O)N[C@@H](CC(C)C)[C@@H](O)CC(=O)O)C(C)C)C(C)C [pepstatin] (Isovaleryl-VV[Sta]A[Sta]-OH),inhibition of BACE,not inhibited
